# From PubChem BioAssay AID652149 (Molecular Libraries Program, Specialized Chemistry Center, …, 2013)
# Active and inactive are the calls of the source. How the calls were made is not given here.
# Target: Breakpoint cluster region protein (Homo sapiens) (UniProt P11274)
# Test: breakpoint cluster region GTPase-activating protein domain inhibitors, dose-response, specificity counterscreen for MgcRacGAP inhibitor project, cell-free, Rac1 GTPase, Biomol Green phosphate readout (AID 652149)
# Conditions: BCR GAP/Rac1 GTPase, Biomol green phosphate absorbance
# Sequence of Breakpoint cluster region protein (Homo sapiens) (P11274 whole entry, looked up, the tested form may be a part): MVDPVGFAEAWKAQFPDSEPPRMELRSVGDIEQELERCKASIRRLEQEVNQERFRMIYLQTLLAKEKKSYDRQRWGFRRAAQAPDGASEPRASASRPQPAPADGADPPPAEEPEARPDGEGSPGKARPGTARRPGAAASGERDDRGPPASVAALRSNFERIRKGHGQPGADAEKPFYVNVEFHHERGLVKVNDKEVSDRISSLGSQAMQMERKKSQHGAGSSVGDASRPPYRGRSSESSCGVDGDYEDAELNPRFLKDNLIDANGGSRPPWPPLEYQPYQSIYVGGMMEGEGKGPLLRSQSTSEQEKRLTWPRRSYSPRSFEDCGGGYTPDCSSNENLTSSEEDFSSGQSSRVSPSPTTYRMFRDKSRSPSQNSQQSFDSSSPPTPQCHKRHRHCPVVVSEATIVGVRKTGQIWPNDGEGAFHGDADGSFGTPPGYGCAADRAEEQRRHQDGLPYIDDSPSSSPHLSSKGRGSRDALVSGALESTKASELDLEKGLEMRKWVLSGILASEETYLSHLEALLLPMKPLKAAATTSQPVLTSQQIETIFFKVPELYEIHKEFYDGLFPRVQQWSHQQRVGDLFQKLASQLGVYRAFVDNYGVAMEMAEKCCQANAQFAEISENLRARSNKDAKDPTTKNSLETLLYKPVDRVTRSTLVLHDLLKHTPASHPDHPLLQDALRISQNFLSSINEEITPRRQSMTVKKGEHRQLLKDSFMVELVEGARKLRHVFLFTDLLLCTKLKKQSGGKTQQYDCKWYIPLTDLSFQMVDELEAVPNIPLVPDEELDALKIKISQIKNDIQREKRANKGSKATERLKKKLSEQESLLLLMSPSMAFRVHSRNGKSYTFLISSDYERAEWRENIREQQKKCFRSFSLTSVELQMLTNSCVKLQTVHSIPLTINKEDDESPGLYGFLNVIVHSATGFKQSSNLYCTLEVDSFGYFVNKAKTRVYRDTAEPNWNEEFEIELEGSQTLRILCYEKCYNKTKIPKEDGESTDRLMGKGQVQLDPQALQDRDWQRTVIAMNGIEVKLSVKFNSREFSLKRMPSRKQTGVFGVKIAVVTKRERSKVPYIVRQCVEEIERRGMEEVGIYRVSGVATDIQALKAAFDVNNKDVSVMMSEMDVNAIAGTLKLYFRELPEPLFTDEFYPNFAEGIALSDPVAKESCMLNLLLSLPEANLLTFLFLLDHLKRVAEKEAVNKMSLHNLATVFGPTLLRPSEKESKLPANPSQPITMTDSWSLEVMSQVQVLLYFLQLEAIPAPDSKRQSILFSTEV
row,SMILES,IC50 [µM]
1,O=C1NC(=S)N(c2ccccc2)C(=O)/C1=C/c1ccco1,10.2
2,CCN1CCN(Cc2ccc(NC(=O)c3ccc(C)c(/C=C/c4cnc(Nc5cc(N6CCNCC6)nc(C)n5)cn4)c3)cc2C(F)(F)F)CC1,72.7
3,CN(C)c1ccc(/C=C/c2cc[n+](C)c3ccccc23)cc1,23.3
4,COc1ccc(-n2sc3ccc(F)cc3c2=O)cc1,9.82
5,O=c1c2cc(F)ccc2sn1-c1ccccc1Cl,8.92
6,O=c1c2ccccc2sn1-c1ccccc1F,32.8
7,O=C1C=CC(=O)c2c(O)c(N3CCN(CCOCCO)CC3)c(Br)c(O)c21,31.4
8,COc1ccc(Nc2ccc3ccccc3c2)cc1,5.93
9,COc1ccc(-n2sc3ccccc3c2=O)cc1,13.3
10,O=c1c2ccc(F)cc2sn1-c1ccccc1,9.12
11,Cc1ccc(C)c(-n2sc3ccc(F)cc3c2=O)c1,7.31
12,CN(C)c1nc(=NCc2cccs2)ss1,18.5
13,O=c1c2ccccc2sn1-c1cccc(Cl)c1,38.1
14,CSc1nc(N)c(N=Nc2ccc([As](=O)(O)O)cc2)c(=O)[nH]1,5.86
15,C[n+]1c(-c2ccc(C=NNC(=O)c3ccc(C(=O)NN=Cc4ccc(-c5cn6ccccc6[n+]5C)cc4)cc3)cc2)cn2ccccc21,14.4
16,COc1ccc(/C=N/Nc2cc(C)nc3ccc(OC)cc23)c(OC)c1,18.4
17,O=c1c2ccccc2sn1-c1ccc(Cl)cc1,4.44
18,Cn1ccc(=Nc2ccc(NC(=O)c3ccc(N=c4ccn(C)c5ccc([N+](=O)[O-])cc45)cc3)cc2)cc1,14.2
19,Nc1n[nH]c(=S)n1/N=C1/C(=O)Nc2ccccc21,14.6
20,CC(=O)Nc1ccc2sn(-c3ccccc3)c(=O)c2c1,27.4
21,O=c1c2ccccc2sn1-c1ccc(Cl)cc1Cl,4.22
22,O=C1C=CC(=O)N1c1ccccc1N1C(=O)C=CC1=O,22.1

row,SMILES,IC50 [µM]
1,CC1OC(CC(=O)O)CC2=C1C(=O)c1c(O)cccc1C2=O (stereo unspecified),13.2
2,O=c1c2cc(F)ccc2sn1-c1ccccc1,7.49
3,CC1=NNC(=O)C1Br (stereo unspecified),13.6
4,COc1ccc(NC2CCCN(C(=O)C3(C)CCCCC3)C2)cc1 (stereo unspecified),7.34
5,O=C(O)c1cccc(-n2sc3ccccc3c2=O)c1,9.61
6,O=C1C(=Cc2ccco2)CCC1=Cc1ccco1,12.7
7,Cc1cc(C)c2c(=N)c3ccccc3n(CCCCCCCCn3c4ccccc4c(=N)c4c(C)cc(C)nc43)c2n1,18
8,O=C1C=CC(=O)c2c(O)c(N3CCN(CCO)CC3)c(Cl)c(O)c21,10.2
9,O=C(Nc1ccccc1Cl)/C(Cl)=C(\Cl)S(=O)c1ccccc1 (stereo unspecified),12.6
10,O=c1c2sc3ccccc3c2[nH]c(=S)n1CCN1CCOCC1,5.15
11,O=C(O)C1CSC(c2ccco2)N1 (stereo unspecified),10.7
12,Cc1ccc(-n2sc3cc(F)ccc3c2=O)c(C)c1,6.71
13,COC(=O)c1cccc(-n2sc3ccccc3c2=O)c1,14.8
14,O=C(O)c1cc(N2C(=O)C=CC2=O)cc(N2C(=O)C=CC2=O)c1,24.4
15,Cc1c(Cl)sn(-c2ccc(Cl)cc2)c1=O,12.9
16,Nc1ccc(OCc2ccco2)cc1,20.6
17,O=C1C(SCCO)=C(SCCO)C(=O)c2ccccc21,25.2
18,Cc1cc(N)c2cc(NC(=O)/C=C/c3ccccc3Cl)ccc2n1,29.1
19,CCN(CC)c1ccc(C(=C2C=CC(=[N+](CC)CC)C=C2)c2ccc(N(CC)CC)cc2)cc1,35.1
20,O=C1C(Cl)=C(NC(=O)c2ccccc2)C(=O)C(Cl)=C1NC(=O)c1ccccc1,22.7
21,CN(C)c1ccc(C=c2c3cc(O)ccc3n3c2cc(-c2ccccc2)[n+]3C)cc1,10.8
22,O=c1c2ccccc2sn1-c1ccc(F)cc1,4.46

# Same assay, conditions: BCR GAP/Rac1 GTPase, Biomol green phosphate absorbance; at 100 µM (top of the series)
row,SMILES,inhibition
1,O=C(O)c1cc(N2N=C(C(F)(F)F)/C(=C/C=C/c3ccco3)C2=O)ccc1Cl,inactive
2,CN(C)c1ncc(C2=C(Cl)C(=O)C(N3CCCC3)=C(Cl)C2=O)s1,inactive
